In a melting point compilation (Tetko et al.; mined from patent text by program, amines drawn as free bases though some values may be those of a salt) one finds melting point data, which are given here for 33 compounds.

Where only a bound is given, the exact number is not on record here.

`O=C(O)C(OCCC1CCN(c2ccncc2)CC1)Oc1ccccc1` (stereo not drawn) displayed a melting point of 247 to 249 °C.
The compound `CSC(Cc1ccc2oc(Cc3nc(-c4ccccc4)oc3C)cc2c1)C(=O)O` (stereo not drawn) had a melting point of 178 to 179 °C.
In the case of `CCOC(=O)c1c2n(c3ccc(Cl)c(Cl)c3c1=O)CCS2`, the melting point lay in the range of 266 to 267 °C.
`CCOC(=O)C1=CNC(COCCN)=C(C(=O)OC)C1c1cccc(Cl)c1Cl` (stereo not drawn) returned a melting point of 131 to 132 °C.
In turn, `CCc1cnc2c(NC(=O)c3c(Cl)cccc3Cl)cccc2c1CC(C)(C)O` yielded a melting point of 203 to 204 °C.
Compound `Cn1c(C(F)(F)F)cc(=O)n(-c2cc(OCN3C(=O)CCC3=O)c(Cl)cc2F)c1=O` came in with a melting point of 212 to 214 °C.
For `CC1(C)CCC(C)(C)N1CC(O)COc1cc2ccccc2c(=O)c2ccsc12` (stereo not drawn) the value was 104 to 107 °C; for `C=C1CC2(C)C(O)CCC2C2C(C)CC3=CC(=O)CCC3C12` (stereo not drawn), 138 to 139 °C; for `NC1N=C(c2ccccc2)c2ccccc2NC1=O` (stereo not drawn), 196 to 197 °C.
In turn, `COCc1nc(-c2ccc(C(F)(F)F)cc2)ncc1COc1ccc(OC(C)(C)C(=O)O)c(C)c1` showed a melting point of 120 to 121 °C.
Consider `CCC(C)(C)N1C(=O)C2(COc3cc4c(cc32)OCCO4)c2ccccc21` (stereo not drawn), for which the melting point was 111 to 113 °C.
The compound `O=C(N[C@H](Cc1ccc(C(F)(F)F)cc1)[C@@H](O)c1ccc(F)cc1)c1ccc(F)cc1` (racemic) came in with a melting point of 202 to 203 °C.
As to `CCOC(=O)C1=C(C)NC(C)=C(C(=O)OC)C1c1ccccc1/C=C/C(=O)OC(C)(C)C` (stereo not drawn), the melting point fell in the range of 165 to 167 °C.
`Cc1nn(C)c2c1c1oc(=O)c(Br)c(O)c1c(=O)n2Cc1ccc(F)cc1`: the melting point lay within 262 to 264 °C.
Regarding `Nc1cc(N2C(=O)CCc3ccccc32)ccn1`, the melting point is 204 to 205 °C.
Next, `CSC(=S)N1Cc2[nH]c3ccccc3c2CC1CO` (stereo not drawn): 114 to 116 °C.
`O=c1oc(-c2cccnc2)cc(O)c1SCc1ccccc1` displayed a melting point of 183 to 184 °C.
Next, `O=C(c1ccccc1)n1cc(-c2ccccc2)c2ccccc21`: 154 to 156 °C; `Cc1nc2cccc3n(CCCCCNS(=O)(=O)CC(F)(F)F)c(=O)c1n23`: 143 to 145 °C.
For `Cc1nc(-c2c(F)cccc2F)nn1-c1ccccc1C(F)(F)F` the value was 80 to 82 °C.
The compound `O=C(NC[C@H]1CN(c2cc(F)c(N3CCC(n4nccn4)CC3)c(F)c2)C(=O)O1)C(F)F` yielded a melting point of 254 to 255 °C.
Regarding `CCOC(=O)C(NS(=O)(=O)c1ccc(C)cc1)C1CCOC1` (stereo not drawn), the melting point was in the range of 104 to 105 °C.
For `CN1CC(=O)OC2(CCN(CC=CC(=O)Nc3cc4c(Nc5ccc(F)c(Cl)c5)ncnc4cc3OCC3CC3)CC2)C1` the value was 125 to 130 °C; for `CCCCc1nc2cccc(C(=O)O)c2n1Cc1ccc(-c2ccccc2-c2n[nH]c(=O)o2)cc1`, 204 to 205 °C.
The compound `O=C(NC1CCCCC1)c1c(O)c2cc(Cl)ccc2n(Cc2ccccc2)c1=O` returned a melting point of 158 °C.
As to `O=C1NC(=O)c2c1c(-c1ccccc1Cl)cc1oc3cc(OCCCN4CCCC4)c(O)cc3c21`, the melting point was in the range of 302 to 304 °C.
Compound `ON=C1CCn2c1cc1ccccc12` came in with a melting point of over 220 °C.
`COC(=O)CCC#Cc1cc(Cl)ccc1NS(=O)(=O)c1ccc(C(F)(F)F)cc1` yielded a melting point of 80 °C.
`CC12CCCc3cc(Nc4ncc(C(=O)O)cn4)cc(c31)CCC2` had a melting point of over 300 °C.
For the compound `CNCC(O)COc1cccc(Nc2cc(Nc3cccc(C)c3)ncn2)c1` (stereo not drawn), the melting point was in the range of 88 to 90 °C.
Consider `Cc1nn(C(=O)NC(C)(C)CCc2ccccc2Cl)c(=O)n1N`, for which the melting point was found to be 102 °C.
For the compound `CC(=O)c1c(C)c(NC=O)c(C)c2c1OCC2c1ccc(C(C)C)cc1` (stereo not drawn), the melting point was in the range of 177 to 179 °C.
For `COc1ccc2[nH]c(SCc3ncnc(N4CCOCC4)c3C)nc2c1`, the melting point fell in the range of 129 to 131 °C.

In general, melting point refers to the temperature of the solid-liquid transition.
